Data taken from patent US12502393B2, “Dual mode of action soluble guanylate cyclase activators and phosphodiesterase inhibitors and uses thereof” (TOPADUR PHARMA AG, priority 2018, dated 2025).
Read-outs that look alike come from different tables or passages of the source.

Tests used:
[1] = target: T1, recombinant human (rh) PDE5A (Homo sapiens, UniProt O76074); assay: Phosphodiesterase-5 activity assay (radiometric SPA); type: biochemical; settings: rhPDE5A1, 0.5 μM cGMP, 20 min at 37° C.
T1 construct: GST; purchased SIGMA E9034

[2] = Human plasma protein binding; type: in vitro ADME; settings: for fraction unbound: human
Protocol: An aliquot of 200 μL of human plasma containing test compound was spiked into donor well (red chamber) of the insert. 350 μL of PBS was spiked into receiver well (white chamber) of the insert.
The samples were matrix equilibrated with opposite matrix (25 μL of plasma/buffer sample was matched with 25 μL of blank buffer/plasma). Matrix matched samples were precipitated with 200 μL of acetonitrile containing internal standard. Samples were vortexed at 1000 rpm for 5 min and centrifuged at 4000 rpm for 10 min. Supernatant was separated, diluted 2 fold with water and analysed in LC-MS/MS. (Table 2).

[3] = read-out: % Unbound in human plasma
[4] = read-out: % Bound in human plasma (converted)

Compound	IC50 [1] [pM]	further results
4-ethoxy-3-(5-methyl-4-oxo-7-propyl-3,4-dihydroimidazo[5,1-f][1,2,4]triazin-2-yl)benzenesulfonyl chloride [Compound 24]	400	
CCCc1nn(C)c2c(=O)[nH]c(-c3cc(S(=O)(=O)N4CCC(C(O)C(CO[N+](=O)[O-])CO[N+](=O)[O-])CC4)ccc3OCC)nc12 (racemic) [Compound 1i, 2-((1-((4-ethoxy-3-(1-methyl-7-oxo-3-propyl-6,7-dihydro-1H-pyrazolo[4,3-d]pyrimidin-5-yl)phenyl)sulfonyl)piperidin-4-yl)(hydroxy)methyl)propane-1,3-diyl dinitrate]	4200	% Bound in human plasma [2]: 99.85%; fraction unbound [2, 3]: 0.0015
CCCc1nc(C)c2c(=O)[nH]c(-c3cc(S(=O)(=O)N4CCC(C(O)CCO)CC4)ccc3OCC)nn12 (racemic) [Compound 27, 2-(5-((4-(1,3-dihydroxypropyl)piperidin-1-yl)sulfonyl)-2-ethoxyphenyl)-5-methyl-7-propylimidazo[5,1-f][1,2,4]triazin-4(3H)-one]	400	
CCCc1nn(C)c2c(=O)[nH]c(-c3cc(S(=O)(=O)N4CCC(C(O)CCO[N+](=O)[O-])CC4)ccc3OCC)nc12 (single isomer, unassigned) [Compound 1e, 3-(1-((4-ethoxy-3-(1-methyl-7-oxo-3-propyl-6,7-dihydro-1H-pyrazolo[4,3-d]pyrimidin-5-yl)phenyl)sulfonyl)piperidin-4-yl)-3-hydroxypropyl nitrate]	4600	
CCCc1nn(C)c2c(=O)[nH]c(-c3cc(S(=O)(=O)N4CCC(C(O)CCO[N+](=O)[O-])CC4)ccc3OCC)nc12 (single isomer, unassigned) [Compound 1f, 3-(1-((4-ethoxy-3-(1-methyl-7-oxo-3-propyl-6,7-dihydro-1H-pyrazolo[4,3-d]pyrimidin-5-yl)phenyl)sulfonyl)piperidin-4-yl)-3-hydroxypropyl nitrate]	3800	
CCCc1nn(C)c2c(=O)[nH]c(-c3cc(S(=O)(=O)N4CCC(C(CO)O[N+](=O)[O-])CC4)ccc3OCC)nc12 (single isomer, unassigned) [Compound 1k, 1-(1-((4-ethoxy-3-(1-methyl-7-oxo-3-propyl-6,7-dihydro-1H-pyrazolo[4,3-d]pyrimidin-5-yl)phenyl)sulfonyl)piperidin-4-yl)-2-hydroxyethyl nitrate]	550	
CCCc1nn(C)c2c(=O)[nH]c(-c3cc(S(=O)(=O)N4CCC(C(CO)O[N+](=O)[O-])CC4)ccc3OCC)nc12 (single isomer, unassigned) [Compound 1l, 1-(1-((4-ethoxy-3-(1-methyl-7-oxo-3-propyl-6,7-dihydro-1H-pyrazolo[4,3-d]pyrimidin-5-yl)phenyl)sulfonyl)piperidin-4-yl)-2-hydroxyethyl nitrate]	690	
CCCc1nc(C)c2c(=O)[nH]c(-c3cc(S(=O)(=O)N4CCC(C(O)CCO[N+](=O)[O-])CC4)ccc3OCC)nn12 (single isomer, unassigned) [Compound 2e, 3-(1-((4-ethoxy-3-(5-methyl-4-oxo-7-propyl-3,4-dihydroimidazo[5,1-f][1,2,4]triazin-2-yl)phenyl)sulfonyl)piperidin-4-yl)-3-hydroxypropyl nitrate]	200	
CCCc1nc(C)c2c(=O)[nH]c(-c3cc(S(=O)(=O)N4CCC(C(O)CCO[N+](=O)[O-])CC4)ccc3OCC)nn12 (single isomer, unassigned) [Compound 2f, 3-(1-((4-ethoxy-3-(5-methyl-4-oxo-7-propyl-3,4-dihydroimidazo[5,1-f][1,2,4]triazin-2-yl)phenyl)sulfonyl)piperidin-4-yl)-3-hydroxypropyl nitrate]	300	
CCCc1nc(C)c2c(=O)[nH]c(-c3cc(S(=O)(=O)N4CCC(C(CO)O[N+](=O)[O-])CC4)ccc3OCC)nn12 (single isomer, unassigned) [Compound 2k, 1-(1-((4-ethoxy-3-(5-methyl-4-oxo-7-propyl-3,4-dihydroimidazo[5,1-f][1,2,4]triazin-2-yl)phenyl)sulfonyl)piperidin-4-yl)-2-hydroxyethyl nitrate]	260	
CCCc1nc(C)c2c(=O)[nH]c(-c3cc(S(=O)(=O)N4CCC(C(CO)O[N+](=O)[O-])CC4)ccc3OCC)nn12 (single isomer, unassigned) [Compound 2l, 1-(1-((4-ethoxy-3-(5-methyl-4-oxo-7-propyl-3,4-dihydroimidazo[5,1-f][1,2,4]triazin-2-yl)phenyl)sulfonyl)piperidin-4-yl)-2-hydroxyethyl nitrate]	170	
CCCc1nn(C)c2c(=O)[nH]c(-c3cc(S(=O)(=O)N4CCC(C(O)CCO)CC4)ccc3OCC)nc12 (single isomer, unassigned) [Compound 14-1, 5-(5-((4-(1,3-dihydroxypropyl)piperidin-1-yl)sulfonyl)-2-ethoxyphenyl)-1-methyl-3-propyl-1,6-dihydro-7H-pyrazolo[4,3-d]pyrimidin-7-one]	4400	
CCCc1nn(C)c2c(=O)[nH]c(-c3cc(S(=O)(=O)N4CCC(C(O)CCO)CC4)ccc3OCC)nc12 (single isomer, unassigned) [Compound 14-2, 5-(5-((4-(1,3-dihydroxypropyl)piperidin-1-yl)sulfonyl)-2-ethoxyphenyl)-1-methyl-3-propyl-1,6-dihydro-7H-pyrazolo[4,3-d]pyrimidin-7-one]	3900	
CCCc1nn(C)c2c(=O)[nH]c(-c3cc(S(=O)(=O)N4CCC([C@@H](CO[N+](=O)[O-])O[N+](=O)[O-])CC4)ccc3OCC)nc12 [Compound 1b, (S)-1-(1-((4-ethoxy-3-(1-methyl-7-oxo-3-propyl-6,7-dihydro-1H-pyrazolo[4,3-d]pyrimidin-5-yl)phenyl)sulfonyl)piperidin-4-yl)ethane-1,2-diyl dinitrate]	4900	
CCCc1nn(C)c2c(=O)[nH]c(-c3cc(S(=O)(=O)N4CCC([C@H](O)CO[N+](=O)[O-])CC4)ccc3OCC)nc12 [Compound 1d, (S)-2-(1-((4-ethoxy-3-(1-methyl-7-oxo-3-propyl-6,7-dihydro-1H-pyrazolo[4,3-d]pyrimidin-5-yl)phenyl)sulfonyl)piperidin-4-yl)-2-hydroxyethyl nitrate]	1200	
CCCc1nn(C)c2c(=O)[nH]c(-c3cc(S(=O)(=O)N4CCC(C(O)(CCO)CCO[N+](=O)[O-])CC4)ccc3OCC)nc12 (centres unmarked) [Compound 1g, 3-(1-((4-ethoxy-3-(1-methyl-7-oxo-3-propyl-6,7-dihydro-1H-pyrazolo[4,3-d]pyrimidin-5-yl)phenyl)sulfonyl)piperidin-4-yl)-3,5-dihydroxypentyl nitrate]	4800	
CCCc1nn(C)c2c(=O)[nH]c(-c3cc(S(=O)(=O)N4CCC(C(O)(CCO[N+](=O)[O-])CCO[N+](=O)[O-])CC4)ccc3OCC)nc12 [Compound 1h, 3-(1-((4-ethoxy-3-(1-methyl-7-oxo-3-propyl-6,7-dihydro-1H-pyrazolo[4,3-d]pyrimidin-5-yl)phenyl)sulfonyl)piperidin-4-yl)-3-hydroxypentane-1,5-diyl dinitrate]	4700	
CCCc1nc(C)c2c(=O)[nH]c(-c3cc(S(=O)(=O)N4CCC([C@@H](CO[N+](=O)[O-])O[N+](=O)[O-])CC4)ccc3OCC)nn12 [Compound 2b, (S)-1-(1-((4-ethoxy-3-(5-methyl-4-oxo-7-propyl-3,4-dihydroimidazo[5,1-f][1,2,4]triazin-2-yl)phenyl)sulfonyl)piperidin-4-yl)ethane-1,2-diyl dinitrate]	280	
CCCc1nc(C)c2c(=O)[nH]c(-c3cc(S(=O)(=O)N4CCC([C@H](O)CO[N+](=O)[O-])CC4)ccc3OCC)nn12 [Compound 2d, (S)-2-(1-((4-ethoxy-3-(5-methyl-4-oxo-7-propyl-3,4-dihydroimidazo[5,1-f][1,2,4]triazin-2-yl)phenyl)sulfonyl)piperidin-4-yl)-2-hydroxyethyl nitrate]	160	fraction unbound [2, 4]: 0.0173; fraction unbound [2, 3]: 0.0173
CCCc1nn(C)c2c(=O)[nH]c(-c3cc(S(=O)(=O)N4CCC([C@H](O)CO)CC4)ccc3OCC)nc12 [Compound 6, (S)-5-(5-((4-(1,2-dihydroxyethyl)piperidin-1-yl)sulfonyl)-2-ethoxyphenyl)-1-methyl-3-propyl-1,6-dihydro-7H-pyrazolo[4,3-d]pyrimidin-7-one]	1600	
CCCc1nn(C)c2c(=O)[nH]c(-c3cc(S(=O)(=O)N4CCC(C(O)(CCO)CCO)CC4)ccc3OCC)nc12 [Compound 15, 5-(2-ethoxy-5-((4-(1,3,5-trihydroxypentan-3-yl)piperidin-1-yl)sulfonyl)phenyl)-1-methyl-3-propyl-1,6-dihydro-7H-pyrazolo[4,3-d]pyrimidin-7-one]	2000	
CCCc1nc(C)c2c(=O)[nH]c(-c3cc(S(=O)(=O)N4CCC([C@H](O)CO)CC4)ccc3OCC)nn12 [Compound 26, (S)-2-(5-((4-(1,2-dihydroxyethyl)piperidin-1-yl)sulfonyl)-2-ethoxyphenyl)-5-methyl-7-propyl imidazo[5,1-f][1,2,4]triazin-4(3H)-one]	70	
CCCc1nc(C)c2c(=O)[nH]c(-c3cc(S(=O)(=O)N4CCC(C(O)C(CO)CO)CC4)ccc3OCC)nn12 (centres unmarked) [Compound 29, 2-(5-((4-(1,3-dihydroxy-2-(hydroxymethyl)propyl)piperidin-1-yl)sulfonyl)-2-ethoxyphenyl)-5-methyl-7-propylimidazo[5,1-f][1,2,4]triazin-4(3H)-one]	370	
CCCc1nn(C)c2c(=O)[nH]c(-c3cc(S(=O)(=O)N4CCN(C)CC4)ccc3OCC)nc12 [Sildenafil, 5-(2-ethoxy-5-((4-methylpiperazin-1-yl)sulfonyl)phenyl)-1-methyl-3-propyl-1,6-dihydro-7H-pyrazolo[4,3-d]pyrimidin-7-one, reference compound]		fraction unbound [2, 4]: 0.0421; fraction unbound [2, 3]: 0.0419
